Reference: ChEMBL document CHEMBL1138416, “Synthesis and SAR of potent and selective androgen receptor antagonists: 5,6-Dichloro-benzimidazole derivatives” (Bioorg Med Chem Lett, 2007)
Calls of active or inactive are those of the source. The calls are words filed in the database; no cut-off is given here.

Experiments:
Rattus norvegicus [1] = organism: Rattus norvegicus; assay: Inhibition of prostate weight in testosterone treated castrated immature Sprague-Dawley rat at 2 mg/day; type: functional, Prostate gland; settings: for inhibition: Prostate gland
Rattus norvegicus [2] = organism: Rattus norvegicus; assay: Inhibition of prostate weight in testosterone treated castrated immature Sprague-Dawley rat; type: functional, Prostate gland
Rattus norvegicus [3] = organism: Rattus norvegicus; assay: Inhibition of prostate weight in testosterone treated castrated immature Sprague-Dawley rat at 0.3 mg/day
[4] = Bioavailability in orally dosed Sprague-Dawley rat; type: ADME, organism-based; settings: in vivo, po
[5] = Half life in orally dosed Sprague-Dawley rat; type: ADME, organism-based; settings: in vivo, po
Rattus norvegicus [6] = organism: Rattus norvegicus; assay: Inhibition of prostate weight in testosterone treated castrated mature Sprague-Dawley rat; type: functional; settings: Prostate gland, read-out: ID50 (the source's name)
[7] = target: T1, Androgen receptor (Homo sapiens) (UniProt P10275); assay: Antagonist activity at androgen receptor expressed in COS cell at 3000 nM by whole cell assay; type: functional, cell-based
T1 sequence (whole entry): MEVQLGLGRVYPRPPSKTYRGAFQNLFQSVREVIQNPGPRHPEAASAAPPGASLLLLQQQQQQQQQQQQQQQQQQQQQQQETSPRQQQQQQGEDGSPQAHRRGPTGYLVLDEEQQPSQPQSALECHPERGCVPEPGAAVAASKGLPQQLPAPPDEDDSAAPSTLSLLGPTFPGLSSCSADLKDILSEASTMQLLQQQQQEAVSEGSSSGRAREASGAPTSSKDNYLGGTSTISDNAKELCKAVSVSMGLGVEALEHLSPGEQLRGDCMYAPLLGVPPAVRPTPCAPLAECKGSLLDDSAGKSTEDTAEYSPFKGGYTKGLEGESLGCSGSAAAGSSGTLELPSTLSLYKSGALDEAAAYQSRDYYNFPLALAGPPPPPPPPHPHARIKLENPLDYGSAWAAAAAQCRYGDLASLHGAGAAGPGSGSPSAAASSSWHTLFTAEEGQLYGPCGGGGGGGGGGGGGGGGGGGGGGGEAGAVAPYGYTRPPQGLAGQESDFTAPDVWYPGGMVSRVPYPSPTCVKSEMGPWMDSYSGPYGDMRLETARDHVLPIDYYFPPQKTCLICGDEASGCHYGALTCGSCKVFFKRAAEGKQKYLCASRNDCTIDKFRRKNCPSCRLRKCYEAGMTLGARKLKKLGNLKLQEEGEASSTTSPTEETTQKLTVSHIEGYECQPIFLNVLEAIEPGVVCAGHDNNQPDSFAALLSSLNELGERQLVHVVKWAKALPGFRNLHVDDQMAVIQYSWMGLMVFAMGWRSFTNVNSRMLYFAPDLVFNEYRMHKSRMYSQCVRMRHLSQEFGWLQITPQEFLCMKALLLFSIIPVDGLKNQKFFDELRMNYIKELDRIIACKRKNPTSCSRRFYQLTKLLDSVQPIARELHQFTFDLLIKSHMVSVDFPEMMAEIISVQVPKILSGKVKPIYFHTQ

[8] = target: T1, Androgen receptor (Homo sapiens); assay: Antagonist activity at androgen receptor expressed in COS cell by whole cell assay; type: functional, cell-based

CCOCC(C)(O)c1nc2cc(Cl)c(Cl)cc2n1C (stereo not drawn)
Inhibition (Rattus norvegicus [1]): 10%

CC(O)(c1nc2cc(Cl)c(Cl)cc2[nH]1)C(F)(F)F (stereo not drawn)
Inhibition (Rattus norvegicus [1]): 74%

CCn1c(C(C)C)nc2cc(Cl)c(Cl)cc21
Inhibition (Rattus norvegicus [1]): 82%

CCCC(C)c1nc2cc(Cl)c(Cl)cc2n1C (stereo not drawn)
Inhibition (Rattus norvegicus [1]): 23%

CCC(CC)c1nc2cc(Cl)c(Cl)cc2n1CC
Inhibition (Rattus norvegicus [1]): 3%

OC(c1nc2cc(Cl)c(Cl)cc2[nH]1)C(F)(F)F (stereo in doubt; (-)-1)
ID50 (Rattus norvegicus [2]): 0.12 mg/day | Inhibition (Rattus norvegicus [3]): 80%

CC(C)(O)c1nc2cc(C#N)c(C(F)(F)F)cc2[nH]1
Inhibition (Rattus norvegicus [1]): 63%

CC(C)c1nc2cc(Cl)c(Cl)cc2n1C
Inhibition (Rattus norvegicus [1]): 93%

CCSCC(C)(O)c1nc2cc(Cl)c(Cl)cc2n1CC (stereo not drawn)
Inhibition (Rattus norvegicus [1]): 79% | bioavailability [4]: 15% | half-life [5]: 1 h

CCCS(=O)(=O)CC(C)(O)c1nc2cc(Cl)c(Cl)cc2n1C (stereo not drawn)
Inhibition (Rattus norvegicus [1]): 26%

OC(c1nc2cc(Cl)c(Cl)cc2[nH]1)C(F)(F)F (stereo in doubt; 1)
Inhibition (Rattus norvegicus [1]): 96% | ID50 (Rattus norvegicus [2]): 0.15 mg/day | ED50 (Rattus norvegicus [6]): 30 mg/kg | bioavailability [4]: 132% | half-life [5]: 14.7 h

CC(C)(O)c1nc2cc(Cl)c(C(F)(F)F)cc2[nH]1
Inhibition (Rattus norvegicus [1]): 42%

CCC(C)c1nc2cc(Cl)c(Cl)cc2n1C (stereo not drawn)
inhibition (Rattus norvegicus [1]): inactive

CSCn1c(C(C)(C)O)nc2cc(Cl)c(Cl)cc21
Inhibition (Rattus norvegicus [1]): 96%

CCC(CC)c1nc2cc(Cl)c(Cl)cc2[nH]1
Inhibition (Rattus norvegicus [1]): 80%

CC(O)(CS(C)(=O)=O)c1nc2cc(Cl)c(Cl)cc2[nH]1 (stereo not drawn)
inhibition (Rattus norvegicus [1]): inactive

CC(O)(CO)c1nc2cc(Cl)c(Cl)cc2[nH]1 (stereo not drawn)
Inhibition (Rattus norvegicus [1]): 67%

CC(O)(CC#N)c1nc2cc(Cl)c(Cl)cc2[nH]1 (stereo not drawn)
Inhibition (Rattus norvegicus [1]): 64%

CC(C)CSCC(C)(O)c1nc2cc(Cl)c(Cl)cc2n1C (stereo not drawn)
Inhibition (Rattus norvegicus [1]): 9%

Cn1c(C(C)(O)CSc2ccc(F)cc2)nc2cc(Cl)c(Cl)cc21 (stereo not drawn)
Inhibition (Rattus norvegicus [1]): 6%

CCc1nc2cc(Cl)c(Cl)cc2[nH]1
inhibition (Rattus norvegicus [1]): inactive

Cn1c(C(C)(O)CS(=O)(=O)CC(F)(F)F)nc2cc(Cl)c(Cl)cc21 (stereo not drawn)
Inhibition (Rattus norvegicus [1]): 38%

CCCCn1c(C(C)(C)O)nc2cc(Cl)c(Cl)cc21
inhibition (Rattus norvegicus [1]): inactive

Cn1c(C(C)(O)CSCc2ccccc2)nc2cc(Cl)c(Cl)cc21 (stereo not drawn)
Inhibition (Rattus norvegicus [1]): 63%

CC(O)(c1nc2cc(Cl)c(Cl)cc2[nH]1)c1ccco1 (stereo not drawn)
Inhibition (Rattus norvegicus [1]): 20%

CC(C)(O)c1nc2cc(F)c(Cl)cc2[nH]1
Inhibition (Rattus norvegicus [1]): 57%

CCn1c(C(C)(C)O)nc2cc(Cl)c(Cl)cc21
Inhibition (Rattus norvegicus [1]): 82%

CC(O)(CS(=O)(=O)c1ccc(F)cc1)C(=O)Nc1ccc(C#N)c(C(F)(F)F)c1 (stereo not drawn) [BICALUTAMIDE]
Inhibition (Rattus norvegicus [1]): 70% | ID50 (Rattus norvegicus [2]): 0.23 mg/day | ED50 (Rattus norvegicus [6]): 30 mg/kg

Cn1c(C(C)(C)O)nc2cc(Cl)c(Cl)cc21
Inhibition (Rattus norvegicus [1]): 91% | bioavailability [4]: 100% | half-life [5]: 3 h

Cn1c(C(C)(O)CS(=O)(=O)Cc2ccccc2)nc2cc(Cl)c(Cl)cc21 (stereo not drawn)
Inhibition (Rattus norvegicus [1]): 16%

CCC(C)c1nc2cc(Cl)c(Cl)cc2[nH]1 (stereo not drawn)
Inhibition (Rattus norvegicus [1]): 88%

CCS(=O)(=O)CC(C)(O)c1nc2cc(Cl)c(Cl)cc2n1C (stereo not drawn)
Inhibition (Rattus norvegicus [1]): 79%

CC(C)CS(=O)(=O)CC(C)(O)c1nc2cc(Cl)c(Cl)cc2n1C (stereo not drawn)
Inhibition (Rattus norvegicus [1]): 7%

Cc1ccc(S(=O)(=O)CC(C)(O)c2nc3cc(Cl)c(Cl)cc3[nH]2)cc1 (stereo not drawn)
Inhibition (Rattus norvegicus [1]): 11%

CCSCC(C)(O)c1nc2cc(Cl)c(Cl)cc2n1C (stereo not drawn)
Inhibition (Rattus norvegicus [1]): 86%

CCC(CC)c1nc2cc(Cl)c(Cl)cc2n1C
Inhibition (Rattus norvegicus [1]): 77%

CC(C)c1nc2cc(Cl)c(Cl)cc2[nH]1
Inhibition (Rattus norvegicus [1]): 11%

CC(O)(CS(=O)(=O)c1ccc(F)cc1)c1nc2cc(Cl)c(Cl)cc2[nH]1 (stereo not drawn)
Inhibition (Rattus norvegicus [1]): 29%

COCn1c(C(C)(C)O)nc2cc(Cl)c(Cl)cc21
Inhibition (Rattus norvegicus [1]): 90%

CCCSCC(C)(O)c1nc2cc(Cl)c(Cl)cc2n1C (stereo not drawn)
Inhibition (Rattus norvegicus [1]): 40%

CCCC(C)c1nc2cc(Cl)c(Cl)cc2[nH]1 (stereo not drawn)
Inhibition (Rattus norvegicus [1]): 32%

Cn1c(C(C)(O)CSCC(F)(F)F)nc2cc(Cl)c(Cl)cc21 (stereo not drawn)
Inhibition (Rattus norvegicus [1]): 6%

CC(O)c1nc2cc(Cl)c(Cl)cc2[nH]1 (stereo not drawn)
inhibition (Rattus norvegicus [1]): inactive

CC(C)(O)c1nc2cc(Cl)c(Cl)cc2[nH]1
Inhibition (Rattus norvegicus [1]): 77% | bioavailability [4]: 100% | half-life [5]: 4 h | inhibition [7]: 90% | ID50 [8]: 80 nM

CC(O)(c1nc2cc(Cl)c(Cl)cc2[nH]1)c1cccs1 (stereo not drawn)
Inhibition (Rattus norvegicus [1]): 16%

CC(C)(O)c1nc2cc(Cl)c(Cl)cc2n1CC#N
Inhibition (Rattus norvegicus [1]): 5%

Cn1c(C(O)(O)C(F)(F)F)nc2cc(Cl)c(Cl)cc21
Inhibition (Rattus norvegicus [1]): 94% | ID50 (Rattus norvegicus [2]): 0.17 mg/day | ED50 (Rattus norvegicus [6]): 23 mg/kg

COC(c1nc2cc(Cl)c(Cl)cc2n1C)C(F)(F)F (stereo not drawn)
Inhibition (Rattus norvegicus [1]): 60%

FC(F)(F)Cc1nc2cc(Cl)c(Cl)cc2[nH]1
Inhibition (Rattus norvegicus [1]): 90% | ID50 (Rattus norvegicus [2]): 0.097 mg/day | ED50 (Rattus norvegicus [6]): 18 mg/kg | half-life [5]: 5.3 h | inhibition [7]: 30%

OC(c1nc2cc(Cl)c(Cl)cc2[nH]1)C(F)(F)F (stereo in doubt; (+)-1)
ID50 (Rattus norvegicus [2]): 0.032 mg/day | Inhibition (Rattus norvegicus [3]): 81%

CCCn1c(C(C)(C)O)nc2cc(Cl)c(Cl)cc21
Inhibition (Rattus norvegicus [1]): 53%

Cn1c(CC(F)(F)F)nc2cc(Cl)c(Cl)cc21
Inhibition (Rattus norvegicus [1]): 60%

CCn1c(C(C)(O)CS(=O)(=O)CC)nc2cc(Cl)c(Cl)cc21 (stereo not drawn)
Inhibition (Rattus norvegicus [1]): 74% | bioavailability [4]: 99% | half-life [5]: 15 h | inhibition [7]: 20%
